Measured values reported in the Bradley open melting point set (2014).
Where “and” joins values, the source holds several entries; their conditions need not be identical. Identical values can stand only once.

Row | melting point | Structure (SMILES)
1 | 6 °C | FC(F)(F)C(F)(F)C(F)(F)C(F)(F)C(F)(F)C(F)(F)C(F)(F)C(F)(F)Br [1-bromoperfluorooctane]
2 | -9 °C | CCCCCCCCCCCBr [1-bromoundecane]
3 | -116 °C | CCCCS [1-butanethiol]
4 | -185 °C | C=CCC [1-butene]
5 | 1 °C | Clc1ccccc1I [1-chloro-2-iodobenzene]
6 | 45 °C | O=[N+]([O-])c1cccc(Cl)c1 [1-chloro-3-nitrobenzene]
7 | 77 °C | Clc1cccc2cc3ccccc3cc12 [1-chloroanthracene]
8 | -39 °C | CCCCCCCCCCl [1-chlorononane]
9 | -26 °C | CCCCCCCCCCS [1-decanethiol]
10 | -66.1 °C | C=CCCCCCCCC [1-decene] [listing 1 of 2 here]
11 | -66 °C | C=CCCCCCCCC [1-decene] [listing 2 of 2 here]
12 | 103 °C | CN(C)/C=C/[N+](=O)[O-] [1-dimethylamino-2-nitroethylene]
13 | -85 °C | CC(O)CN(C)C (configuration not stated) [1-dimethylamino-2-propanol]
14 | -19 °C | C#CCCCCCCCCCC [1-dodecyne]
15 | 112 °C | CCC1(O)CCC(c2ccccc2)c2ccccc21 (configuration not stated) [1-ethyl-4-phenyl-1,2,3,4-tetrahydronaphthalen-1-ol]
16 | 2 °C | O=[N+]([O-])c1cccc(F)c1 [1-fluoro-3-nitrobenzene]
17 | -34 °C (2×) and -33.2 °C | CCCCCCCO [1-heptanol]
18 | -81 °C | C#CCCCCC [1-heptyne]
19 | 21 °C | CCCCCCCCCCCCCCCCS [1-hexadecanethiol]
20 | 15 °C | C#CCCCCCCCCCCCCCC [1-hexadecyne]
21 | -19 °C | CCCCCCN [1-hexylamine]
22 | 50 °C | O=[N+]([O-])c1ccccc1I [1-iodo-2-nitrobenzene]
23 | 38 °C | O=[N+]([O-])c1cccc(I)c1 [1-iodo-3-nitrobenzene]

Row | melting point | Structure (SMILES)
24 | 175 °C | O=[N+]([O-])c1ccc(I)cc1 [1-iodo-4-nitrobenzene]
25 | -16 °C | CCCCCCCCCCI [1-iododecane]
26 | 0 °C | CCCCCCCCCCCCI [1-iodododecane]
27 | -48 °C | CCCCCCCI [1-iodoheptane]
28 | -86 °C | CCCCCI [1-iodopentane]
29 | 0 °C | Cc1ccccc1-c1ccccc1 [1-methyl-2-phenylbenzene]
30 | 5 °C | Cc1cccc(-c2ccccc2)c1 [1-methyl-3-phenylbenzene]
31 | -68 °C | Cc1ccc(C(C)C)cc1 [1-methyl-4-isopropylbenzene]
32 | -53 °C | Cc1ccc(C(C)(C)C)cc1 [1-methyl-4-tert-butylbenzene]
33 | 38 °C | CC1(C(=O)O)CCCCC1 [1-methylcyclohexanecarboxylic acid]
34 | 26 °C | CC1(O)CCCCC1 [1-methylcyclohexanol]
35 | 37 °C | CC1(O)CCCC1 [1-methylcyclopentanol] [listing 1 of 2 here]
36 | 37 °C | CC1(O)CCCC1 [1-methylcyclopentanol] [listing 2 of 2 here]
37 | -142 °C | CC1=CCCC1 [1-methylcyclopentene]
38 | 242 °C | Cn1cnc(C(=O)O)c1 [1-methylimidazole-4-carboxylic acid]
39 | 41 °C | CCCCc1ccc(C#Cc2ccc(CCCC)cc2)cc1 [1-n-butyl-4-[(4-butylphenyl)ethynyl]benzene]
40 | 96 °C | Oc1cccc2ccccc12 [1-naphthol]
41 | 177 °C | NC(=O)Cc1cccc2ccccc12 [1-naphthylacetamide]
42 | 61 °C | CCCCCCCCCCCCCCCCCCO [1-octadecanol]
43 | 27 °C | C#CCCCCCCCCCCCCCCCC [1-octadecyne]
44 | -102 °C | C=CCCCCCC [1-octene]
45 | -78 °C | CCCCCO [1-pentanol]
46 | 80 °C | CCCC=CB(O)O [1-pentenylboronic acid]

Row | melting point | Structure (SMILES)
47 | 56 °C | CC(=O)OC1=CC(c2ccccc2)c2ccccc21 (configuration not stated) [1-phenyl-1H-inden-3-yl acetate]
48 | 172 °C | NC(=O)NNc1ccccc1 [1-phenylsemicarbazide]
49 | -83 °C | CCCN [1-propylamine]
50 | 185 °C | O=C(O)CCCc1ccc2ccc3cccc4ccc1c2c34 [1-pyrenebutyric acid]
51 | -52 °C | Cc1ccc(C(C)(C)C)cc1 [1-tert-Butyl-4-methylbenzene]
52 | 116 °C | CC(=O)OC[C@H]1O[C@@H](S)[C@H](OC(C)=O)[C@@H](OC(C)=O)[C@@H]1OC(C)=O [1-thio-beta-D-glucose tetraacetate]
53 | -49 °C | C=CCCCCCCCCC [1-undecene]
54 | 107 °C | COC(=O)c1cc(C)[nH]n1 [1H-pyrazole-3-carboxylic acid, 5-methyl-, methyl ester]
55 | 41 °C | Cc1cc(CO)nn1C [1H-pyrazole-3-methanol, 1,5-dimethyl-]
56 | 203 °C | O=c1c(O)c(-c2ccccc2O)oc2ccccc12 [2',3-dihydroxyflavone]
57 | 122 °C | CC(=O)Nc1ccc(F)cc1F [2',4'-difluoroacetanilide]
58 | 70 °C | COc1cccc(OC)c1C(C)=O [2',6'-dimethoxyacetophenone]
59 | 145 °C | CC(=O)Nc1ccccc1S(C)(=O)=O [2'-(methylsulfonyl)acetanilide]
60 | 90 °C | O=C(/C=C/c1ccccc1)c1ccccc1O [2'-hydroxychalcone]
61 | 73 °C | CC(=O)Nc1ccccc1C(C)C [2'-isopropylacetanilide]
62 | -4 °C | OCCOCCOCCO [2,2'-[Ethane-1,2-diylbis(oxy)]diethanol]
63 | 91 °C | c1ccc(-c2cccc(-c3ccccn3)n2)nc1 [2,2':6',2''-terpyridine]
64 | -43.5 °C | OCC(F)(F)F [2,2,2-Trifluoroethanol]
65 | 73 °C | NC(=O)C(F)(F)F [2,2,2-trifluoroacetamide]
66 | 115 °C | CC(C)(C)C(N)=S [2,2,2-trimethylthioacetamide]
67 | -107 °C | CC(C)CC(C)(C)C [2,2,4-Trimethylpentane]
68 | 52 °C | CC(C)C(O)C(C)(C)CO (configuration not stated) [2,2,4-trimethyl-1,3-pentanediol]
69 | -107 °C | CC(C)CC(C)(C)C [2,2,4-trimethylpentane]

Row | melting point | Structure (SMILES)
70 | -59 °C | CC1(C)CCCC(C)(C)N1 [2,2,6,6-tetramethylpiperidine]
71 | -35 °C | COC(F)(F)C(Cl)Cl [2,2-Dichloro-1,1-difluoroethyl methyl ether]
72 | -100 °C | CCC(C)(C)C [2,2-Dimethylbutane]
73 | 104 °C | OCCN(CCO)C(CO)(CO)CO [2,2-bis(hydroxymethyl)-2,2',2''-nitrilotriethanol]
74 | -28 °C | OCC(F)F [2,2-difluoroethanol]
75 | 5 °C | CCC(O)C(C)(C)C (configuration not stated) [2,2-dimethyl-3-pentanol] [listing 1 of 2 here]
76 | -5 °C | CCC(O)C(C)(C)C (configuration not stated) [2,2-dimethyl-3-pentanol] [listing 2 of 2 here]
77 | -100 °C | CCC(C)(C)C [2,2-dimethylbutane]
78 | 36 °C | CC(C)(C)C(=O)O [2,2-dimethylpropanoic_acid]
79 | 37.5 °C | OCc1c(F)c(F)c(F)c(F)c1F [2,3,4,5,6-Pentafluorobenzyl Alcohol]
80 | 110 °C | CC(=O)OCC(OC(C)=O)C(OC(C)=O)C(OC(C)=O)C(OC(C)=O)C(=O)O (configuration not stated) [2,3,4,5,6-penta(acetyloxy)hexanoic acid]
81 | 148 °C | NC(=O)c1c(F)c(F)c(F)c(F)c1F [2,3,4,5,6-pentafluorobenzamide]
82 | 83 °C | Cc1c(C)c(C)c(CCl)c(C)c1C [2,3,4,5,6-pentamethylbenzyl chloride]
83 | 161 °C | Cc1c(C)c(C)c2c(c1C)CC2=O [2,3,4,5-Tetramethylbicyclo(4.2.0)octa-1,3,5-trien-7-one]
84 | 218 °C | O=C1C(c2ccccc2)=C(c2ccccc2)C(c2ccccc2)=C1c1ccccc1 [2,3,4,5-Tetraphenylcyclopenta-2,4-dien-1-one]
85 | 253 °C | OB(O)c1cc(F)c(F)c(F)c1F [2,3,4,5-tetrafluorobenzeneboronic acid]
86 | 86 °C | O=C(O)c1cc(F)c(F)c(F)c1F [2,3,4,5-tetrafluorobenzoic acid]
87 | 105 °C | Cc1[nH]c(C)c(C)c1C [2,3,4,5-tetramethylpyrrole]
88 | 127 °C | OB(O)c1c(F)cc(F)c(F)c1F [2,3,4,6-tetrafluorobenzeneboronic acid]
89 | 70 °C | S=C=Nc1ccc(Cl)c(Cl)c1Cl [2,3,4-trichlorophenyl isothiocyanate]
90 | 110 °C | O=C(O)c1c(F)cnc(F)c1F [2,3,5-trifluoropyridine-4-carboxylic acid]
91 | 112 °C | Nc1cccnc1N [2,3-diaminopyridine]

Row | Structure (SMILES) | melting point
92 | CCCCCBr [1-bromopentane] [listing 1 of 2 here] | -88 °C
93 | CCCCCBr [1-bromopentane] [listing 2 of 2 here] | -95 °C
94 | CCCBr [1-bromopropane] | -110 °C
95 | O=[N+]([O-])c1ccc(Cl)cc1[N+](=O)[O-] [1-chloro-3,4-dinitrobenzene] | 23 °C
96 | Clc1cccc2ccccc12 [1-chloronaphthalene] | -20 °C
97 | C#CC1(O)CCCCC1 [1-ethynyl-1-cyclohexanol] | 33 °C
98 | CCCCI [1-iodobutane] | -103 °C
99 | CCCI [1-iodopropane] | -101 °C
100 | O=Cc1cccc2ccccc12 [1-naphthaldehyde] | 2 °C
101 | CCCS [1-propanethiol] | -113 °C
102 | c1c[nH]nn1 [1h-1,2,3-triazole] | 24 °C
103 | Oc1ccc(Cl)cc1Cc1cc(Cl)ccc1O [2,2'-methylenebis(4-chlorophenol)] | 174 °C
104 | OCC(F)(F)C(F)(F)CO [2,2,3,3-tetrafluoro-1,4-butanediol] | 84 °C
105 | O=[N+]([O-])c1ccc(Cl)c(Cl)c1Cl [2,3,4-trichloronitrobenzene] | 56 °C and 55.5 °C
106 | Cc1cc(C)c(C)c(CCl)c1C [2,3,5,6-tetramethylbenzyl chloride] | 70 °C
107 | c1ccc2cc3cc4ccccc4cc3cc2c1 [2,3-Benzanthracene, Naphthacene] | 341 °C
